According to paper PMC8634879, “Design, Synthesis, and Biological Evaluation of Pyrano[2,3-c]-pyrazole–Based RalA Inhibitors Against Hepatocellular Carcinoma” (Frontiers in Chemistry, 2021):
Where two headings read alike, the source gives them in different places.

Columns and labels:
HepG2 xenograft = experiment: HepG2 subcutaneous xenograft model; format: in vivo
Method: Several reports have characterized RalA/B potential regulatory roles in autophagy ([Zhang et al., 2019]; [Pang et al., 2020]; [Zhang et al., 2020]). Considering the dual effect of HCC autophagy, we assessed changes in HepG2 cell autophagy levels after the addition of 0.5 or 2.0 μM of 4p, before incubation. Based on HepG2 cells’ TEM images with or without 4p (Figure 5B), autophagy vacuoles per cell decreased in the 4p-treated group (p < 0.01). After 4p treatments, LC3-II and ATG5 protein levels declined and SQSTM1 increased. […] In GFP-LC3–transfected HepG2 cells, cytoplasm LC3 fluorescent puncta numbers also declined after 4p treatments. […] The in vivo antitumor capacities of 4p were determined on a HepG2 subcutaneous xenograft model. The 4p intraperitoneal injections were set to 15 mg/kg and 60 mg/kg, according to in vitro results. […] The potential 4p molecular mechanisms were further validated using immunofluorescence and IHC analyses of tissue sections stained by antibodies against TUNEL, Ki-67, RalA, LC3-II, and SQSTM1. […] Therefore, the in vivo results were consistent with in vitro experiments.
Female Balb/c nude mice aged 6–8 weeks were purchased from Beijing Huafukang Co. Ltd. (Beijing, China). Animal-based experiments complied with the guidelines of the Animal Ethics Committee (Sichuan University), and all aspects were approved by the Animal Ethics Committee of West China Hospital of Sichuan University (China). In brief, HepG2 cells were injected subcutaneously in the dorsal flank of Balb/c nude mice (5*10^5 cells per mice). Tumor volumes were recorded every 2 days post cancer cell injection. After the therapeutic endpoint, all mice were euthanized, and tumor tissues were stripped, fixed in formalin, embedded in paraffin, and sectioned. The IHC and immunofluorescent staining methods were performed following methods as per our previous research, ([Zhang et al., 2019]; [Pan et al., 2020]; [Pang et al., 2020]; [Zhang et al., 2020]), and detailed experimental procedures are also described in supporting materials. […]
2. Western blotting analysis
For western blotting, the extracts of total protein from each sample were treated in accordance with the method we described previously. In short, the total proteins were loaded into the SDS-PAGE gel and separated through the different of their molecular weight in electrophoresis, after that the separated proteins were shifted into a PVDF membrane (Millipore, Burlington, MA, USA) and incubated through corresponding membrane react pathways. The resulted membranes reacted with major antibodies and HRP (horseradish peroxidase)-conjugated secondary antibodies. The expression profiles of target proteins can be identified through an enhanced chemiluminescence (ECL) substrate.
3. Immunohistochemistry and immunofluorescent assays
The histological sections of tumor tissue were immersed into EDTA antigen recovery buffer (pH 8.0) or citrate buffer (pH 6.0), and then microwave was used to recover antigen. Then the slide was incubated with the corresponding primary antibody at 37 ℃ for 30-40 min. Normal anti-rabbit or anti-mouse IgG was used as a negative control group. Immunohistochemical analysis was performed with diaminobenzidine solution after the sections was treated with HRP polymer as well as the second antibody for 30 min. Immunofluorescence (IF) test was carried out by treating slides with fluorescein combined with secondary antibody and detecting under fluorescence microscope. The IHC staining method is to use the corresponding primary antibody, as we reported in previous

RalB = target: T1, RalB (Homo sapiens, UniProt P11234); experiment: GST pulldown of activated RalB; format: cell-based; details: 2.0 μM
T1 construct: expressed in transfected cells; host or cells: HepG2 (from b6; the methods paragraph names no cell line)
T1 sequence (P11234 1-203 limits assumed): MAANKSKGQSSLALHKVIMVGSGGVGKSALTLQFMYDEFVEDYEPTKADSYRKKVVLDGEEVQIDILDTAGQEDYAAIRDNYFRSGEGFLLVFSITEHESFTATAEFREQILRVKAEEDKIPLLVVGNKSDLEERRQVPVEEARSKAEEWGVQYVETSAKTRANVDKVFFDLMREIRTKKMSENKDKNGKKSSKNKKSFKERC
Method: GST pulldown assays were performed to assess 4p RalA/B inhibitory capacities. […] Only activated RalA was suppressed after incubation with 0.5 μM of compound 4p (Figure 5A).
The in vitro RalA/B bioactivity assays were performed following methods outlined in previous reports. ([Yan et al., 2016]; [Zhang et al., 2018]; [Walsh et al., 2019]; [Bum-Erdene et al., 2020]). In brief, the lysates of the test compound or vehicle-treated cells were cleared using cold centrifugation, and supernatants were collected. An RalBP1 solution was added to 96-well plates and incubated for 1–2 h, and then the plates were washed thrice using ELISA buffer. Next, cellular lysates were added, and samples were incubated overnight at 4°C. Then, ice-cold mouse anti-FLAG antibody was added, and samples were incubated for one more hour. After subsequent washing with ELISA buffer thrice, the HRP-conjugated anti-mouse antibody was added, and samples were incubated for another hour. Then, the HRP substrate was added. Antigen–antibody reactions were quenched by the addition of sulfuric acid (2 mol/L). Remaining RalA/B was detected by the OD450 values which were collected by using a plate reader. Cell proliferation assays, colony formation assays, apoptosis assays, GST pulldown, and Western blotting were used following methods outlined in our previous reports. […]

HepG2 cells = experiment: Cell proliferation assay (MTT), HepG2; format: cell-based; details: Homo sapiens
Method: The antibodies recognizing LC3, p62/SQSTM1, RalA, RalB, and GAPDH were purchased from Proteintech (Wuhan, China). HCC cell lines, including HepG2, Hep3B, Huh-7, and SMMC-7721, were obtained from the Chinese Center for Type Culture Collection (Wuhan, China) and cultured in DMEM (Dulbecco’s modified Eagle’s medium) with 10% FBS (fetal bovine serum) and streptomycin. Cytotoxicity assays were performed by using the MTT method as previously described.
The in vitro RalA/B bioactivity assays were performed following methods outlined in previous reports. ([Yan et al., 2016]; [Zhang et al., 2018]; [Walsh et al., 2019]; [Bum-Erdene et al., 2020]). In brief, the lysates of the test compound or vehicle-treated cells were cleared using cold centrifugation, and supernatants were collected. An RalBP1 solution was added to 96-well plates and incubated for 1–2 h, and then the plates were washed thrice using ELISA buffer. Next, cellular lysates were added, and samples were incubated overnight at 4°C. Then, ice-cold mouse anti-FLAG antibody was added, and samples were incubated for one more hour. After subsequent washing with ELISA buffer thrice, the HRP-conjugated anti-mouse antibody was added, and samples were incubated for another hour. Then, the HRP substrate was added. Antigen–antibody reactions were quenched by the addition of sulfuric acid (2 mol/L). Remaining RalA/B was detected by the OD450 values which were collected by using a plate reader. Cell proliferation assays, colony formation assays, apoptosis assays, GST pulldown, and Western blotting were used following methods outlined in our previous reports. ([Zhou et al., 2015]; [Zhang et al., 2016]; [Yang et al., 2017]; [He et al., 2019]). Autophagy levels and protein immunoblotting were used following the methods mentioned in our previous reports ([Pan et al., 2018]; [Wang et al., 2018]; [Hao et al., 2019]; [Wang et al., 2019]; [Peng et al., 2020]). Detailed experimental procedures are described in supporting materials.

COc1ccc(S(=O)(=O)NC2=C(C#N)C(c3ccc(C(F)(F)F)cc3)c3c(C)nn(-c4ccccc4)c3O2)cc1 (stereo not shown) [4p, N-(5-cyano-3-methyl-1-phenyl-4-(4-(trifluoromethyl)phenyl)-1,4-dihydropyrano[2,3-c]-pyrazol-6-yl)-4-methoxybenzenesulfonamide]
body weights (HepG2 xenograft; 15 and 60 mg/kg i.p.): without significant changes | total RalA levels in tumor sections (HepG2 xenograft; IHC): No clear changes | mean tumor weights compared to the control (HepG2 xenograft; both high- and low-dosage groups (60 and 15 mg/kg i.p.), p < 0.01): notably declined | TUNEL and SQSTM1 levels in tumor sections (HepG2 xenograft; high dosage group, immunofluorescence/IHC): increased | LC3-II expression in tumor sections (HepG2 xenograft; high dosage group, p < 0.01): decreased | tumor growth inhibition (TGI) (HepG2 xenograft; high dosage, 60 mg/kg intraperitoneal injection): 63% | tumor growth inhibition (TGI) (HepG2 xenograft; low dosage, 15 mg/kg intraperitoneal injection): 39% | activated RalB protein expression level (RalB): significantly suppressed | IC50 (HepG2 cells; HepG2, Table 1, cell proliferation inhibition, read-out: IC50 (μM) HepG2): 2.28 ± 0.23 µM | IC50 (HepG2 cells; HepG2, Table 2, average of at least three independent replicates ± SD, read-out: Anti-proliferative activities (IC50, μM) HepG2): 2.28 ± 0.23 µM
